The conditions of the series: for aqueous solubility: pH 6.8.

Converted amounts (≈) assume the structure as drawn.

Regarding `O=C(Nc1ccc(C(F)(F)F)cc1)c1ccccn1`, the intrinsic clearance, human liver microsomes was determined as 31.9 mL/min/kg and the intrinsic clearance, rat liver microsomes stood at 165 mL/min/kg.
With `COc1cccc(-c2nnn(Cc3cc(F)cc4cccnc34)n2)c1`, the MDR1-MDCK efflux ratio is 0.486 and the aqueous solubility (in general, the concentration that dissolves in the medium under given conditions) amounted to 0.14 µg/mL (≈ 0.417 µM).
Regarding `CCc1nnc(NC(=O)Cc2c(C)noc2C)s1`, the MDR1-MDCK efflux ratio came to 12.8; the intrinsic clearance, human liver microsomes is at most 4.74 mL/min/kg; the intrinsic clearance, rat liver microsomes was at most 10.7 mL/min/kg; the aqueous solubility came to 44.6 µg/mL (≈ 167 µM).
As to `Cn1cc(CNc2ncccn2)c(C(C)(C)C)n1`, the MDR1-MDCK efflux ratio was 0.905; the intrinsic clearance, human liver microsomes was at most 4.74 mL/min/kg; the intrinsic clearance, rat liver microsomes was 363 mL/min/kg.
With `Cc1nc2ccccc2c(C(=O)O)c1C`, the intrinsic clearance, human liver microsomes was at most 4.74 mL/min/kg and the intrinsic clearance, rat liver microsomes is at most 10.7 mL/min/kg.
For the molecule `CN(CC(=O)Nc1cc(F)cc(F)c1)c1ccnc(C(N)=O)c1`, the MDR1-MDCK efflux ratio is 12.3; the intrinsic clearance, human liver microsomes is at most 4.74 mL/min/kg; the intrinsic clearance, rat liver microsomes came to 42.6 mL/min/kg; the aqueous solubility turned out to be 45.9 µg/mL (≈ 143 µM).
For `Cc1nc(C)c(CNc2cnn(-c3ccccc3)c2)s1` the same measures were 0.521, 14.2 mL/min/kg, 124 mL/min/kg and 36.4 µg/mL (≈ 128 µM).
Consider `N#Cc1cc(F)c(N2CCN(CCO)CC2)c(F)c1`, for which the MDR1-MDCK efflux ratio turned out to be 0.524; the intrinsic clearance, human liver microsomes was at most 4.74 mL/min/kg; the intrinsic clearance, rat liver microsomes was at most 10.7 mL/min/kg; the aqueous solubility is 41.3 µg/mL (≈ 154 µM).
For `O=c1n(CCc2ccncc2)nnn1-c1ccccc1` the same measures were 0.571, 5.8 mL/min/kg, 65.2 mL/min/kg and 23.1 µg/mL (≈ 86.3 µM).
Turning to `OCc1nnc(SCCSC2CCCCC2)n1C1CC1`, the MDR1-MDCK efflux ratio worked out at 1.96; the intrinsic clearance, human liver microsomes is 29 mL/min/kg; the intrinsic clearance, rat liver microsomes was determined as 728 mL/min/kg.
Take `Cc1ccc(CNc2cncc(-n3nc(C)cc3C)n2)cn1`: the intrinsic clearance, human liver microsomes was found to be 23.4 mL/min/kg and the intrinsic clearance, rat liver microsomes came to 252 mL/min/kg.
On to `O=C(Nc1nnc(SCc2ccc(F)cc2)s1)C1CCC1`, for which the MDR1-MDCK efflux ratio was 0.689; the intrinsic clearance, human liver microsomes worked out at 52 mL/min/kg; the intrinsic clearance, rat liver microsomes was found to be 1650 mL/min/kg.
For the molecule `CN(Cc1ccc(Cl)cc1)C(=O)c1ccc(-n2ccnc2)nc1`, the MDR1-MDCK efflux ratio was determined as 1.08; the intrinsic clearance, human liver microsomes was at most 4.74 mL/min/kg; the intrinsic clearance, rat liver microsomes turned out to be 46.4 mL/min/kg; the aqueous solubility was 65.1 µg/mL (≈ 199 µM).
In turn, `Cc1ccccc1-c1cc(N)n(Cc2ccccc2)n1` registered an intrinsic clearance, human liver microsomes of 33.2 mL/min/kg and an intrinsic clearance, rat liver microsomes of 302 mL/min/kg.
As for `CCN1CCN(c2ccc(Nc3ncnc4sccc34)cc2)CC1`, the MDR1-MDCK efflux ratio came out at 1.2; the intrinsic clearance, human liver microsomes is at most 4.74 mL/min/kg; the intrinsic clearance, rat liver microsomes was 61.9 mL/min/kg.
The corresponding values for `CCN1CCC(CCNc2ncc(C)c(N(C)C)n2)CC1` are 11.5, at most 4.74 mL/min/kg and 323 mL/min/kg.
In the case of `CN(Cc1ccccc1N1CCCC1)C(=O)c1cccc(Cn2ccnc2)c1`, the MDR1-MDCK efflux ratio was found to be 21.7; the intrinsic clearance, human liver microsomes worked out at 392 mL/min/kg; the intrinsic clearance, rat liver microsomes was 1520 mL/min/kg; the aqueous solubility was found to be 61.6 µg/mL (≈ 164 µM).
As to `COCC1(CNC(=O)c2cc(Cl)cnc2O)CCC1`, the MDR1-MDCK efflux ratio came out at 5.64; the intrinsic clearance, human liver microsomes stood at 16.3 mL/min/kg; the intrinsic clearance, rat liver microsomes was 475 mL/min/kg.
Take `O=c1[nH]c2ccccc2n1C1CCN(S(=O)(=O)Cc2ccccc2)CC1`: the intrinsic clearance, human liver microsomes was determined as 79.4 mL/min/kg; the intrinsic clearance, rat liver microsomes was 6660 mL/min/kg; the aqueous solubility came to 2.65 µg/mL (≈ 7.13 µM).
With `Cc1sc2ncnc(OCC(=O)Nc3ccc4c(c3)OCO4)c2c1C`, the MDR1-MDCK efflux ratio was 0.986 and the aqueous solubility turned out to be 0.26 µg/mL (≈ 0.727 µM).
As for `Cc1ccc2[nH]c(CNC(=O)c3ncoc3C)nc2c1C`, the MDR1-MDCK efflux ratio was 2.39; the intrinsic clearance, human liver microsomes worked out at 13.6 mL/min/kg; the intrinsic clearance, rat liver microsomes was found to be 244 mL/min/kg.
For `COC(=O)c1c(C)[nH]c(C(=O)N(C)Cc2ccc(OC)c(F)c2)c1C`, the MDR1-MDCK efflux ratio is 1.5; the intrinsic clearance, human liver microsomes was found to be 55 mL/min/kg; the intrinsic clearance, rat liver microsomes was determined as 591 mL/min/kg; the aqueous solubility is 47.3 µg/mL (≈ 136 µM).
The molecule `O=C(O)c1ccc(COc2ccc(/C=C3\SC(=O)N(Cc4ccc(F)cc4)C3=O)cc2)cc1` showed an aqueous solubility of 0.99 µg/mL (≈ 2.14 µM).
`O=C(Cc1ccc2ccccc2c1)NCCc1nc2ccccc2[nH]1`: the MDR1-MDCK efflux ratio stood at 15.4; the intrinsic clearance, human liver microsomes was determined as 184 mL/min/kg; the intrinsic clearance, rat liver microsomes amounted to 875 mL/min/kg; the aqueous solubility was 29.1 µg/mL (≈ 88.5 µM).
In the case of `N#Cc1cccc(-c2ccc3[nH]ccc3c2)n1`, the MDR1-MDCK efflux ratio is 0.528; the intrinsic clearance, human liver microsomes worked out at 299 mL/min/kg; the intrinsic clearance, rat liver microsomes was 657 mL/min/kg; the aqueous solubility stood at 3.65 µg/mL (≈ 16.6 µM).
`O=C(CCn1cc(Br)cn1)Nc1nc2ccccc2n1CCN1CCOCC1` registered an aqueous solubility of 42.3 µg/mL (≈ 94.6 µM).
In the case of `COC(=O)C1=NOC2(CCN(CCC(C)(C)C)CC2)C1`, the MDR1-MDCK efflux ratio was 0.474; the intrinsic clearance, human liver microsomes amounted to 144 mL/min/kg; the intrinsic clearance, rat liver microsomes amounted to 301 mL/min/kg.
For `O=C1CC[C@H](O)[C@@H](c2cccc(Cl)c2)N1Cc1ccccc1`, the MDR1-MDCK efflux ratio came to 3.79; the intrinsic clearance, human liver microsomes was 10.9 mL/min/kg; the intrinsic clearance, rat liver microsomes was 450 mL/min/kg; the aqueous solubility was determined as 118 µg/mL (≈ 375 µM).
Molecule `Cc1nc(-c2ccccc2)ccc1C(=O)NC1CCCC1` had an intrinsic clearance, human liver microsomes of at most 4.74 mL/min/kg; an intrinsic clearance, rat liver microsomes of 319 mL/min/kg; an aqueous solubility of 41 µg/mL (≈ 146 µM).
As to `CCOC(=O)c1cc2ccccc2n1CC(=O)c1ccc(F)cc1`, the MDR1-MDCK efflux ratio amounted to 0.662; the intrinsic clearance, human liver microsomes was 756 mL/min/kg; the intrinsic clearance, rat liver microsomes stood at 1890 mL/min/kg; the aqueous solubility was 6.56 µg/mL (≈ 20.2 µM).
In the case of `O=C(c1ccccc1N1CCOCC1)N(Cc1ccccn1)C1CCCCC1`, the MDR1-MDCK efflux ratio was determined as 3.17; the intrinsic clearance, human liver microsomes amounted to 990 mL/min/kg; the intrinsic clearance, rat liver microsomes amounted to 3840 mL/min/kg.
Turning to `Cc1nnc(-c2cccc(C(=O)O)c2)o1`, the intrinsic clearance, human liver microsomes was at most 4.74 mL/min/kg; the intrinsic clearance, rat liver microsomes is at most 10.7 mL/min/kg; the aqueous solubility was found to be 34.4 µg/mL (≈ 168 µM).
As to `O=C(Nc1ccc(-c2nnn[nH]2)cc1)c1cc(COc2ccc(F)cc2)on1`, the aqueous solubility was 16.4 µg/mL (≈ 43 µM).
For `COc1ccccc1Oc1c(NS(=O)(=O)c2ccc(C(C)(C)C)cc2)nc(-c2ncccn2)nc1OCCO`, the MDR1-MDCK efflux ratio is 88.2; the intrinsic clearance, human liver microsomes is 16 mL/min/kg; the intrinsic clearance, rat liver microsomes came out at 71.8 mL/min/kg.
Turning to `COCCN(Cc1cccs1)Cc1cccc(C)c1O`, the intrinsic clearance, human liver microsomes came to 124 mL/min/kg; the intrinsic clearance, rat liver microsomes was determined as 2100 mL/min/kg; the aqueous solubility is 1.05 µg/mL (≈ 3.6 µM).

The values above are taken from the Biogen ADME set (Fang et al. 2023).
